Results as given in the supplement of paper PMC10307832.

Columns and labels:
Test in all cases: relative viability (nuclei count vs DMSO), 5 days (fraction); higher = more cells survive
IPA-3 + Foretinib = compound: C1=CC=C2C(=C1)C=CC(=C2SSC3=C(C=CC4=CC=CC=C43)O)O [IPA-3] + COc1cc2c(Oc3ccc(NC(=O)C4(C(=O)Nc5ccc(F)cc5)CC4)cc3F)ccnc2cc1OCCCN1CCOCC1 [Foretinib] (partner 0.25 µM)
Method in brief: (§1)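 Medians of duplicate plates are given as relative viability. That measure is the nuclei count in treated wells divided by the count in vehicle wells. Counts were taken on 4× images of lung cancer cell lines in 1536-well plates, 5 days after pin-tool dosing the day after seeding with one drug alone or a fixed anchor-drug dose plus five library-drug doses (not always all listed) in √10 steps.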

IPA-3 + Bortezomib = compound: C1=CC=C2C(=C1)C=CC(=C2SSC3=C(C=CC4=CC=CC=C43)O)O [IPA-3] + CC(C)C[C@H](NC(=O)[C@H](Cc1ccccc1)NC(=O)c1cnccn1)B(O)O [Bortezomib] (partner 0.002 µM)
Method in brief: as §1

RAF265 + Vorinostat = compound: Cn1c(Nc2ccc(C(F)(F)F)cc2)nc2cc(Oc3ccnc(-c4ncc(C(F)(F)F)[nH]4)c3)ccc21 [RAF265] + O=C(CCCCCCC(=O)Nc1ccccc1)NO [Vorinostat] (partner 1 µM)
Method in brief: as §1

Doramapimod + Tozasertib = compound: Cc1ccc(-n2nc(C(C)(C)C)cc2NC(=O)Nc2ccc(OCCN3CCOCC3)c3ccccc23)cc1 [Doramapimod] + Cc1cc(Nc2cc(N3CCN(C)CC3)nc(Sc3ccc(NC(=O)C4CC4)cc3)n2)n[nH]1 [Tozasertib] (partner 0.1 µM)
Method in brief: as §1

Cell Line	relative viability (IPA-3 + Foretinib; first compound 0.2 µM)	relative viability (IPA-3 + Foretinib; first compound 0.6325 µM)	relative viability (IPA-3 + Foretinib; first compound 2 µM)	relative viability (IPA-3 + Foretinib; first compound 6.325 µM)	relative viability (IPA-3 + Foretinib; first compound 20 µM)	relative viability (IPA-3 + Bortezomib; first compound 0.2 µM)	relative viability (IPA-3 + Bortezomib; first compound 0.6325 µM)	relative viability (IPA-3 + Bortezomib; first compound 2 µM)	relative viability (IPA-3 + Bortezomib; first compound 6.325 µM)	relative viability (IPA-3 + Bortezomib; first compound 20 µM)	relative viability (RAF265 + Vorinostat; first compound 0.01 µM)	relative viability (RAF265 + Vorinostat; first compound 0.03162 µM)	relative viability (RAF265 + Vorinostat; first compound 0.1 µM)	relative viability (RAF265 + Vorinostat; first compound 0.3162 µM)	relative viability (RAF265 + Vorinostat; first compound 1 µM)	relative viability (Doramapimod + Tozasertib; first compound 0.02 µM)	relative viability (Doramapimod + Tozasertib; first compound 0.06325 µM)	relative viability (Doramapimod + Tozasertib; first compound 0.2 µM)	relative viability (Doramapimod + Tozasertib; first compound 0.6325 µM)	relative viability (Doramapimod + Tozasertib; first compound 2 µM)
NCI-H1355	1	0.953	1.02	0.946	1.08	1.44	1.25	1.18	1.16	1.3	0.641	0.607	0.578	0.604	0.419	0.543	0.538	0.55	0.556	0.495
NCI-H1437	1.37	1.23	1.32	1.2	1.35	1.09	0.467	0.443	0.438	0.587	0.823	0.778	0.947	0.887	0.715	0.416	0.431	0.394	0.404	0.401
NCI-H1650	1.27	1.29	1.39	1.03	1.45	0.223	0.193	0.186	0.283	0.27	0.615	0.587	0.595	0.655	0.566	0.416	0.408	0.395	0.382	0.357
NCI-H1651	0.981	0.717	0.967	0.952	1.04	1.02	0.912	0.998	1.04	1.06	0.61	0.637	0.521	0.591	0.453	0.726	0.703	0.75	0.719	0.608
NCI-H1666	0.988	0.926	0.976	1.01	1.16	0.903	0.808	0.887	0.76	0.73	1.13	0.923	0.906	0.99	0.854	0.642	0.687	0.641	0.624	0.597
NCI-H1734	0.972	0.803	0.845	0.92	0.934	0.973	0.812	1.03	0.995	0.87	0.801	0.715	0.731	0.536	0.322	0.273	0.267	0.229	0.284	0.235
NCI-H1755	0.923	0.884	0.879	0.85	0.952	1.02	0.905	0.946	0.997	1.08	0.8	0.663	0.694	0.579	0.476	0.581	0.58	0.597	0.611	0.469
NCI-H1915	1.13	1.06	1.08	1.11	1.11	1.15	0.974	0.952	0.971	1.09	0.502	0.436	0.424	0.296	0.201	0.438	0.464	0.489	0.459	0.384
NCI-H1975	1.01	0.887	1.03	0.873	0.935	0.373	0.375	0.387	0.421	0.481	0.718	0.644	0.542	0.338	0.325	0.802	0.729	0.937	0.817	0.639
NCI-H1993	0.833	0.654	0.813	0.776	0.728	1.04	1.14	1.14	1.1	1.21	0.9	0.902	0.756	0.823	0.768	0.688	0.564	0.622	0.598	0.565
NCI-H2009	1.32	1.15	1.23	1.16	1.29	1.27	0.95	1.09	0.943	0.715	0.744	0.649	0.757	0.761	0.512	0.727	0.799	0.696	0.663	0.556
NCI-H2023	0.856	0.666	0.995	0.853	1.1	1.19	0.9	1.05	1.17	1.11	0.59	0.501	0.707	0.515	0.381	0.333	0.352	0.3	0.304	0.247
NCI-H2085	0.948	0.824	1.28	0.949	1.04	1.19	0.99	1.01	0.937	1.27	0.891	0.714	0.82	0.788	0.803	0.882	0.913	0.852	0.84	0.796
NCI-H2087	1.26	1.12	1.05	1.03	1.18	1.04	0.796	0.828	0.749	0.838	0.634	0.359	0.757	0.864	0.719	0.32	0.308	0.253	0.223	0.233
NCI-H2126	1.21	1.23	0.904	1.17	1.18	1.19	1.11	1.13	1.11	1.19	0.841	0.771	0.733	0.673	0.464	0.843	0.835	0.812	0.926	0.777
NCI-H2228	0.979	0.805	0.842	1.07	1.22	1.24	1.04	1.07	1.15	0.855	0.554	0.653	0.52	0.324	0.275	0.263	0.296	0.258	0.263	0.242
